Test results published in patent US20080096905A1, “Process For Preparing Pyrido[2,3-D]Pyrimidin-7-One And 3,4-Dihydropyrimido{4,5-D}Pyrimidin-2(1H)-One Derivatives” (Glaxo Group Limited, priority 2005, published 2008).

melting point [°C]	Compound
214.2 to 217.5	Cc1c(F)cc(C(=O)NC2CC2)cc1-c1nc(NC(CO)CO)nc2c1ccc(=O)n2-c1c(F)cccc1F [Example 49, N-cyclopropyl-3-(8-(2,6-difluorophenyl)-2-{[2-hydroxy-1-(hydroxymethyl)ethyl]amino}-7-oxo-7,8-dihydropyrido[2,3-d]pyrimidin-4-yl)-5-fluoro-4-methylbenzamide]
144 to 147	CSc1nc(-c2cc(C(=O)N(C)C)ccc2C)c2c(n1)N(c1c(F)cccc1F)C(=O)NC2 [Example 73, 3-[8-(2,6-difluorophenyl)-2-(methylthio)-7-oxo-5,6,7,8-tetrahydropyrimido[4,5-d]pyrimidin-4-yl]-N,N,4-trimethylbenzamide]
